Laboratory results from ChEMBL document CHEMBL1155461, “Emerging targets in osteoporosis disease modification” (J Med Chem, 2010).

Columns and labels:
Rattus norvegicus [1] = assay: Induction of bone formation in ovariectomized rat assessed as increase in total bone mineral content at 1 mg/kg, sc administered daily for 6 weeks relative to control; format: functional; conditions: route subcutaneous
[2] = molecular target: Prostaglandin E2 receptor EP1 subtype (Homo sapiens, UniProt P34995); assay: Binding affinity to EP1 receptor
Chain of Prostaglandin E2 receptor EP1 subtype (P34995 whole entry): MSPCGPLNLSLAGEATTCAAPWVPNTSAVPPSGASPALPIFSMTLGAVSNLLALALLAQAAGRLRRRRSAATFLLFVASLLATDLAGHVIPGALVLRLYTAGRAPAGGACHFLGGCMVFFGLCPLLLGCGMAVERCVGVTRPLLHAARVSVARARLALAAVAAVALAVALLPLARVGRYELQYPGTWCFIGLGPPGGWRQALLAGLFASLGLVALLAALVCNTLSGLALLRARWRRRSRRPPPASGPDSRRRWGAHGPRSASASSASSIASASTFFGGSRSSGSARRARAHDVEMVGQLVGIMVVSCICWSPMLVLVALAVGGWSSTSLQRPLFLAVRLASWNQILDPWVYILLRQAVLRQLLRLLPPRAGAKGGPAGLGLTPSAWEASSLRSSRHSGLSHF

[3] = Selectivity for cathepsin K over cathepsin B
[4] = Selectivity for cathepsin K over cathepsin L
[5] = Selectivity for cathepsin K over cathepsin S
Homo sapiens [6] = assay: Antiosteoporotic activity in men with osteoporosis assessed as decrease in bone resorption-associated serum CTX-1 level at 250 mg/kg after 10 to 14 days; format: functional, organism-based; design: dose 250 mg/kg; conditions: dose 250 mg/kg
Homo sapiens [7] = assay: Antiosteoporotic activity in men with osteoporosis assessed as decrease in bone resorption-associated urinary CTX-1 level at 250 mg/kg after 10 to 14 days; format: functional; conditions: Urine
Osteoclast [8] = assay: Inhibition of osteoclast differentiation; format: functional, cell-based
Cannabinoid receptor 2 = Cannabinoid receptor 2 (Homo sapiens, UniProt P34972); assay: Antagonist activity at cannabinoid CB2 receptor; format: functional
Chain of Cannabinoid receptor 2 (P34972 whole entry): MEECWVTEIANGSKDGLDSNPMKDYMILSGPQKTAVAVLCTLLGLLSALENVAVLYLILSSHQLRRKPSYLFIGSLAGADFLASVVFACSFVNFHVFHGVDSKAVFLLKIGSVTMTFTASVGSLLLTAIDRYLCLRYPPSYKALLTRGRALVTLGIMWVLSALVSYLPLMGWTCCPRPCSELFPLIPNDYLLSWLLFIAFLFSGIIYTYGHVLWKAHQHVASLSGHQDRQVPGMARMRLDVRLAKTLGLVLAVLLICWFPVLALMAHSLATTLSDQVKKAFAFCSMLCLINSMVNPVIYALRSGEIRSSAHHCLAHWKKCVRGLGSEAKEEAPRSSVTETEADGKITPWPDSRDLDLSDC

[9] = Clearance in rat; format: ADME, organism-based; conditions: in vivo
[10] = molecular target: T1, Extracellular calcium-sensing receptor (Homo sapiens, UniProt P41180)
T1 sequence (P41180 whole entry): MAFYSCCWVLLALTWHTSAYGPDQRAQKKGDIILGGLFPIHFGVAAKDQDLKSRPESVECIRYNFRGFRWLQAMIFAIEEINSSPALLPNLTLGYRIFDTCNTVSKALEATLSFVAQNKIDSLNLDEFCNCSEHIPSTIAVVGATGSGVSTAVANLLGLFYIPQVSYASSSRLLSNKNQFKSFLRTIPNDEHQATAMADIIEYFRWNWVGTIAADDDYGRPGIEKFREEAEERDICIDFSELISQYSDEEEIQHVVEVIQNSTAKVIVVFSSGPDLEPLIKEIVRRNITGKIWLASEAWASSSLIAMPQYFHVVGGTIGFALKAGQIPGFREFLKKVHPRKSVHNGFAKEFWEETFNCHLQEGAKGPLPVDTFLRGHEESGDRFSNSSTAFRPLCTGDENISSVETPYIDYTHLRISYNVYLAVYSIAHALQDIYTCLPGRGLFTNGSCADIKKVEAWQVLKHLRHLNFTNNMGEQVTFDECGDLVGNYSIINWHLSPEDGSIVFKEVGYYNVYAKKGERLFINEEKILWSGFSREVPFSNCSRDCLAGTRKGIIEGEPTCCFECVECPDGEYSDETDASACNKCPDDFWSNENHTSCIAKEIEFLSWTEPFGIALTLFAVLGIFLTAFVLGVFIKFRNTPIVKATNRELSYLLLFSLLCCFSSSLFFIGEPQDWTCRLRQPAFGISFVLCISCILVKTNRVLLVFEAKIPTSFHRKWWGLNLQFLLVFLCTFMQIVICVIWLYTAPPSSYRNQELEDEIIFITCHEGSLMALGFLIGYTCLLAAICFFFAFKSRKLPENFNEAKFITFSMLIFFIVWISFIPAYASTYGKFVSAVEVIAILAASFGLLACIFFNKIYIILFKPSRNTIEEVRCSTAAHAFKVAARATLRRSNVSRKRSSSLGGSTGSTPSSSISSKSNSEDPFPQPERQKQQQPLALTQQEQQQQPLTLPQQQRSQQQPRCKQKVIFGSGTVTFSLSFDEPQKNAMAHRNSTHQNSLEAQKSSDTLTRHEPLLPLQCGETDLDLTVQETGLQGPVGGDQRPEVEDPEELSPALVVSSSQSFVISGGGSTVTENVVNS

Cathepsin K = Cathepsin K (Homo sapiens, UniProt P43235)
Chain of Cathepsin K (P43235 whole entry): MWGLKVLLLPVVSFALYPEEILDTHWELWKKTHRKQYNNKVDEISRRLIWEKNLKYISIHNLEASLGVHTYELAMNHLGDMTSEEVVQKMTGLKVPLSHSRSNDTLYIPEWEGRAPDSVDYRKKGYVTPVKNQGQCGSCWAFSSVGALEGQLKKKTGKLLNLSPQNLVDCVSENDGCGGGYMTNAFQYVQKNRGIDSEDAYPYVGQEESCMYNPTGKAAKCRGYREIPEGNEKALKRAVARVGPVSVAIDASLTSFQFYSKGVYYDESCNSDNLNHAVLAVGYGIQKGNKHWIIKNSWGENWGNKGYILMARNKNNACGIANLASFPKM

MC3T3-E1 [11] = assay: Induction of osteogenesis in mouse MC3T3-E1 cells assessed as increase in osteoblast differentiation-associated ALP level at 0.03 uM; format: functional
MC3T3-E1 [12] = assay: Induction of osteogenesis in mouse MC3T3-E1 cells assessed as increase in osteoblast differentiation-associated collagen synthesis at 0.03 uM; format: functional
MC3T3-E1 [13] = assay: Induction of osteogenesis in mouse MC3T3-E1 cells assessed as increase in bone mineralization at 0.03 uM; format: functional
Integrin alpha-V/beta-3 = Integrin alpha-V/beta-3 (Homo sapiens, UniProt P05106+P06756)
Chain of Integrin alpha-V/beta-3 (P05106 27-788 limits assumed): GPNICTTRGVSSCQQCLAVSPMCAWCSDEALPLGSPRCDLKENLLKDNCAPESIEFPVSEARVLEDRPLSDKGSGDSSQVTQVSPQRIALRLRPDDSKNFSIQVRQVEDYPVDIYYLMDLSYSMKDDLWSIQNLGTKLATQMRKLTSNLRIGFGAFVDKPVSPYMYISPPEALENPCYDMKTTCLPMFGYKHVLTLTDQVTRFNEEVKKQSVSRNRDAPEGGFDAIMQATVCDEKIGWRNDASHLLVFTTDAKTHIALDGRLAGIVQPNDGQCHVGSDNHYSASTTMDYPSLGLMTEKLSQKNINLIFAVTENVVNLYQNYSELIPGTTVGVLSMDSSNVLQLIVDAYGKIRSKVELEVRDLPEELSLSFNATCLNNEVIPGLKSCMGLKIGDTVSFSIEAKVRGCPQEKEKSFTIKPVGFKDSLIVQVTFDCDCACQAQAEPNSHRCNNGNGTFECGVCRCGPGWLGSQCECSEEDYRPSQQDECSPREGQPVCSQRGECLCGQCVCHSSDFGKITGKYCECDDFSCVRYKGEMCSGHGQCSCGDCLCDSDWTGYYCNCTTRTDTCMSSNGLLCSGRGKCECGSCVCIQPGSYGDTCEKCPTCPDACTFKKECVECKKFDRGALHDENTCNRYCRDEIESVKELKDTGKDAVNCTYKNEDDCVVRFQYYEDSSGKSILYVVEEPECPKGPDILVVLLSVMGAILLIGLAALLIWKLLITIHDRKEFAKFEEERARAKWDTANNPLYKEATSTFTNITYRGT
Chain of Integrin alpha-V/beta-3 (P06756 31-889 limits assumed): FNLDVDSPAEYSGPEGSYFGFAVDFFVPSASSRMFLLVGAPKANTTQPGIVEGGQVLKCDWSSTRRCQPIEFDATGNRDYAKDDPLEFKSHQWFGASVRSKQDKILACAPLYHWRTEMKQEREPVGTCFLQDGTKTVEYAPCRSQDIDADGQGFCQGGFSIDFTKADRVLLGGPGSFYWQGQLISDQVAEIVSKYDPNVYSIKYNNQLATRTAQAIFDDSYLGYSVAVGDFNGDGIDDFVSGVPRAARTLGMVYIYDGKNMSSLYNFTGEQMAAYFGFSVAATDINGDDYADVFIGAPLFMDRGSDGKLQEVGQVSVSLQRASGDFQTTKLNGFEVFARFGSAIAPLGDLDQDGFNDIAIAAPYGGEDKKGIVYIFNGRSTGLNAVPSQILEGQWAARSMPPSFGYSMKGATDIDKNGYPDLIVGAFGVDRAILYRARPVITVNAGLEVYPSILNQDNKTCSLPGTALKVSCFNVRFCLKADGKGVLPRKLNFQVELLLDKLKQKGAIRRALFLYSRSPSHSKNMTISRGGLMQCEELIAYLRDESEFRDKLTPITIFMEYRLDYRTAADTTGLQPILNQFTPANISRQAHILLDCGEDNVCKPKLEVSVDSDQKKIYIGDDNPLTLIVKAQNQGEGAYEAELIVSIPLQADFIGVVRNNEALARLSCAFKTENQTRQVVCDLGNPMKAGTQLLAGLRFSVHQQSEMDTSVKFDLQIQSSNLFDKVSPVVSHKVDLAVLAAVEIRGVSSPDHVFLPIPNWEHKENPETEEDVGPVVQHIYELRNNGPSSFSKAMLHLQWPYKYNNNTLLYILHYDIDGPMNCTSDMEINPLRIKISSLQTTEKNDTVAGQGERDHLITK
Chain of Integrin alpha-V/beta-3 (P06756 891-1048 limits assumed): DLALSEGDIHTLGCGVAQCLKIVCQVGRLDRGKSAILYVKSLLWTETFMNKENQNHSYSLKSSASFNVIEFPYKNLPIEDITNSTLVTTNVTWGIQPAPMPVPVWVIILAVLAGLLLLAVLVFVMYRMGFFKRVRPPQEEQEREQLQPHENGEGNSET

[14] = Induction of osteogenesis in rat UMR106 cells assessed as stimulation of cell proliferation at 10 nM; format: functional
MC3T3-E1 [15] = assay: Induction of osteogenesis in mouse MC3T3-E1 cells assessed as increase in osteoblast differentiation-associated ALP level at 0.01 uM; format: functional
MC3T3-E1 [16] = assay: Induction of osteogenesis in mouse MC3T3-E1 cells assessed as increase in bone mineralization at 1 uM; format: functional
Rattus norvegicus [17] = assay: Short duration (5-10 min) elevation in PTH as Cmax in rats after 10 umol/kg intravenous dose; format: functional, organism-based
Osteoclast [18] = assay: Inhibition of osteoclastogenesis in RANKL/M-CSF-stimulated osteoclast; format: functional, cell-based
[19] = Clearance in po dosed rat; format: ADME, organism-based; conditions: in vivo
[20] = Half life in po dosed rat; format: ADME, organism-based; conditions: in vivo
Rattus norvegicus [21] = assay: Short duration (5-10 min) elevation in PTH as Cmax in rats after 3 umol/kg intravenous dose; format: functional

CCCCC[C@H](O)/C=C/[C@H]1[C@H](O)CC(=O)[C@@H]1C/C=C\CCCC(=O)O [DINOPROSTONE]
Activity (Rattus norvegicus [1]): 20.6%
IC50 [2]: 0.0011 µM

CC(C)CNc1nc(C#N)nc(N2CCOCC2)c1N
Selectivity ratio [3]: > 556
Selectivity ratio [4]: 111
Selectivity ratio [5]: 31

CN1CCN(CCOc2cc(OC3CCOCC3)c3c(Nc4c(Cl)ccc5c4OCO5)ncnc3c2)CC1 [SARACATINIB]
inhibition in vivo at 250 mg/kg (Homo sapiens [6]): 88%
inhibition in vivo at 250 mg/kg (Homo sapiens [7]): 67%

COc1ccc(C(=O)c2c(C)n(CCN3CCOCC3)c3cc(I)ccc23)cc1
IC50 (Osteoclast [8]): 0.33 µM
IC50 (Cannabinoid receptor 2): 7.2 µM

CC(C)(CC1Cc2ccccc2C1)NC[C@@H](O)COc1cc(CCC(=O)O)ccc1C#N [SB-423562]
clearance [9]: 89 mL/min/kg
IC50 [10]: 0.073 µM

CN1CCN(c2nc(-c3ccc(C(=O)NC4(C(=O)N[C@@H]5C(=O)N[C@@H]5Oc5ccccc5)CCCCC4)cc3)cs2)CC1
Selectivity ratio [3]: 71
Selectivity ratio [4]: 500
Selectivity ratio [5]: 3540
Ki (Cathepsin K): 0.0048 µM

C=CCc1ccc(O)c(O[C@@H]2O[C@H](CO[C@@H]3OC[C@](O)(CO)[C@H]3O)[C@@H](O)[C@H](O)[C@H]2O)c1 [MANGLIESIDE B]
Activity (MC3T3-E1 [11]): 114%
Activity (MC3T3-E1 [12]): 123%
Activity (MC3T3-E1 [13]): 118%

COc1cc(Cl)c(/C=C2\S/C(=N/c3cccc(C(=O)O)c3)N(C)C2=O)cc1OC
IC50 (Integrin alpha-V/beta-3): 0.03 µM

O=c1c(O[C@@H]2O[C@H](CO)[C@@H](O)[C@H](O)[C@H]2O)c(-c2ccc(O)cc2)oc2cc(O[C@@H]3O[C@@H](CO)[C@H](O)[C@H]3O)cc(O)c12
Activity [14]: 35.9%

COc1cc2c(O)c3c(O)c(OC)c(O[C@@H]4O[C@H](CO)[C@@H](O)[C@H](O)[C@H]4O)cc3c(O)c2c(O)c1OC
Activity (MC3T3-E1 [15]): 135%
Activity (MC3T3-E1 [16]): 115%

O=c1c2ccccc2nc(-c2ccccc2O)n1CCc1ccccc1
Cmax PTH (Rattus norvegicus [17]): 400 pg/mL

CC1(C)C(=O)CC[C@]2(C)[C@@H]1CC[C@@]13CC4[C@@H](C[C@H]12)[C@]4(C(=O)O)C3
IC50 (Osteoclast [18]): 4 µM

O=C(O)c1ccc(CCCN2C(=O)CC[C@@H]2CC[C@@H](O)Cc2cccc(C(F)(F)F)c2)s1
CL/F [19]: 70 mL/min/kg
half-life [20]: 12 min

CCc1cc2c(=O)n(CCc3ccccc3F)c(-c3ccccc3O)nc2cc1C
Cmax PTH (Rattus norvegicus [21]): 600 pg/mL
IC50 [10]: 0.097 µM

CC(C)(C)Cn1c(CN2C(=O)CC3(CCNCC3)C2=O)cc2cnc(C#N)nc21
Selectivity ratio [4]: > 1000
Selectivity ratio [5]: > 10000
IC50 (Cathepsin K): < 0.001 µM
